Data published in patent publication US8771953B2, “Evaluation of the potential risk of drug induced mood disturbance and suicide: use of a dedicated platform” (Biocortech, priority 2008, dated 2014).
Like-named read-outs stand apart in the source and are kept apart here. Marks after values point to notes of the source that are not given here.

Columns and labels:
ADAR1a mRNA = experiment: Q-PCR of ADAR1a mRNA expression in SH-SY5Y cells; type: cell-based; conditions: Homo sapiens, 10 micromolar, 24 hours, read-out: QPCR: RNA expresion (% of variation) ADAR1a
Description: ADAR1a RNA Expression in SH-SY5Y cells (Q-PCR, Applied TaqMan probes ref: Hs 01020780_m1).
(§1) The SH-SY5Y Human neuroblastoma cell line was purchased from ECACC (EC94030304 from the European Collection of Cell Cultures (ECACC)). The cell line SH-SY5Y is a thrice-cloned neuroblastoma, originally from SK-N-SH and first reported in 1978. A neuroblast-like subclone of SK-N-SH, named SH-SY, was subcloned as SH-SY5, which was subcloned again as SH-SY5Y (Biedler J L et al. Cancer Res. 1978; 38:3751-7). Cells were cultured in high glucose D-MEM medium (Sigma, ref D6546) supplemented with 10% dialysed FCS (PAA, ref. A15-507, lot A50708-0050), 2 mM Glutamine (Sigma, G7513) and a 1× mix of Antibiotic-Antimycotic Stabilized (Sigma, ref. A5955) at 37° C. under a humidified atmosphere of 5% CO2. The day preceeding drug or hIFNα treatment, SH-SY5Y cells were plated in 6-well plates at a density of 10^6 cells/well. One 6-well plate was used per experimental condition (concentration or treatment duration). The day after plating, culture medium was removed and cells were incubated for 24 hours with a 10 μM solution of the compound to be tested molecules or a 1000 IU/ml solution of hIFNα (PBL biomedical laboratories). For hIFNα dose-response experiment cells were incubated with 1, 10, 100, and 1000 IU/ml of hIFNα solutions. For hIFNα time-course experiment cells were treated for 24, 48, or 72 hours with a 1000 IU/ml solution of hIFNα. After the different treatments, cells were directly lysed in RLT lysis buffer and total RNA purified according to manufacturer's protocol (Qiagen, RNeasy Plus mini kit, ref. 74134). Total RNA was then reverse transcribed with Thermoscript RT-PCR system Plus Taq (Invitrogen, 11146-032) and the resulting cDNA used for CE-SSCP and quantitative real-time PCR.
(§2) In order to quantify levels of 5-HT2CR, ADAR1 and ADAR2 mRNA expression in SH-SY5Y cells or in prefrontal cortex, total blood and skin of Balb/cJ mice, first-strand cDNA was synthesized by reverse transcription and subjected to TaqMan quantitative real-time PCR analysis (Applied Biosystems). All probes and primers used for the quantitative PCRs were from Applied Bio systems (Gene Expression Assays, Assay-On-Demand) (see Table 1, Applied Biosystems primers and probes references): […]
(§3) Human GAPDH (product no. 4326317E; Applied Biosystems) or mouse GAPDH (product no. 4352339E; Applied Biosystems) were included in each multiplex PCR as an internal control. Real-time PCR and subsequent analysis were performed with a 48-well block StepOne RT PCR system (Applied Biosystems). Quantification of target gene expression in all samples was normalized to GAPDH expression by the equation Ct (target)−Ct (GAPDH)=ΔCt, where Ct is the threshold cycle number. The mean ΔCt value of samples from untreated mice or cells was determined and used as a reference point for the samples corresponding to treated animals or cells. Differences between untreated and treated animals or cells, including individual variation were calculated by the equation (ΔCt (individual treated samples)−ΔCt (mean of untreated samples)=ΔΔCt). Changes in target gene expression (n-fold) in each sample were calculated by 2^−ΔΔCt, from which the means and standard deviations (SD) were derived.
(§4) The SH-SY5Y Human neuroblastoma cell line was purchased from ECACC. Cells were cultured in high glucose D-MEM medium (Sigma, ref. D6546) supplemented with 10% dialysed FCS (PAA, ref. A15-507, lot A50708-0050), 2 mM Glutamine (Sigma, ref. G7513) and a 1× mix of Antibiotic-Antimycotic Stabilized (Sigma, ref. A5955) at 37° C. under a humidified atmosphere of 5% CO2. The day preceeding hIFNα or drug treatment, SH-SY5Y cells were plated in 6-well plates (Corning, Multiwell Plate, 6 well, Corning CellBIND Surface, ref 3335) at a density of 5; 7 or 9·10^6 cells/well for a 72-, 48- or 24-hour treatment respectively. Six or eight wells of 6-well plates were used per experimental condition (control, concentration or treatment duration).

ADAR2 mRNA = experiment: Q-PCR of ADAR2 mRNA expression in SH-SY5Y cells; type: cell-based; conditions: Homo sapiens, 10 micromolar, 24 hours, read-out: QPCR: RNA expresion (% of variation) ADAR2
Protocol: as §1, §2, §3, §4

5-HT2cR mRNA = experiment: Editing profile of 5-HT2cR mRNA isoforms by CE-SSCP (nested PCR) in SH-SY5Y cells; enzyme activity indexes worked out from the profile; type: cell-based, human; conditions: for activation at 10 µM: Homo sapiens; for alteration of 5-HT2cR mRNA editing compared with that observed after INFα treatment (component analysis, FIG. 4): SH-SY5Y cells, 48 hours, 10 μM
ADAR1b mRNA = experiment: Q-PCR of ADAR1b mRNA expression in SH-SY5Y cells; type: cell-based; conditions: Homo sapiens, 10 micromolar, 24 hours, read-out: QPCR: RNA expresion (% of variation) ADAR1b
Protocol: as §1, §2, §3, §4

[1] = SH-SY5Y, 10 micromolar, 24 hours, read-out: ENZYME ACTIVIY INDEX (% of variation) ADAR1
[2] = SH-SY5Y, 10 micromolar, 24 hours, read-out: ENZYME ACTIVIY INDEX (% of variation) ADAR1 + 2
[3] = SH-SY5Y, 10 micromolar, 24 hours, read-out: ENZYME ACTIVIY INDEX (% of variation) ADAR2
[4] = SH-SY5Y, 10 micromolar, 24 hours, read-out: ENZYME ACTIVIY INDEX (% of variation) ADARI
[5] = SH-SY5Y, 10 micromolar, 24 hours, read-out: ENZYME ACTIVIY INDEX (% of variation) ADARII
[6] = SH-SY5Y, 10 micromolar, 24 hours, read-out: ENZYME ACTIVIY INDEX (% of variation) NE
[7] = SH-SY5Y, 24 h, read-out: ENZYME ACTIVIY INDEX (% of variation) ADAR1
[8] = SH-SY5Y, 24 h, read-out: ENZYME ACTIVIY INDEX (% of variation) ADAR1 + 2
[9] = SH-SY5Y, 24 h, read-out: ENZYME ACTIVIY INDEX (% of variation) ADAR2
[10] = SH-SY5Y, 24 h, read-out: ENZYME ACTIVIY INDEX (% of variation) ADARI
[11] = SH-SY5Y, 24 h, read-out: ENZYME ACTIVIY INDEX (% of variation) ADARII
[12] = SH-SY5Y, 24 h, read-out: ENZYME ACTIVIY INDEX (% of variation) NE

| Structure (SMILES) | % change in ADAR1a mRNA expression at 10 µM (ADAR1a mRNA) [%] | percent change in ADAR2 mRNA expression at 10 µM (ADAR2 mRNA) [%] | activation at 10 µM (5-HT2cR mRNA; [1]) [%] | activation at 10 µM (5-HT2cR mRNA; [2]) [%] | activation at 10 µM (5-HT2cR mRNA; [3]) [%] | activation at 10 µM (5-HT2cR mRNA; [4]) [%] | activation at 10 µM (5-HT2cR mRNA; [5]) [%] | activation at 10 µM (5-HT2cR mRNA; [6]) [%] | percent change in mRNA expression at 10 µM (ADAR1b mRNA) [%] | alteration of 5-HT2cR mRNA editing compared with that observed after INFα treatment (component analysis, FIG. 4) (5-HT2cR mRNA) | activation at 10 µM (5-HT2cR mRNA; [7]) [%] | activation at 10 µM (5-HT2cR mRNA; [8]) [%] | activation at 10 µM (5-HT2cR mRNA; [9]) [%] | activation at 10 µM (5-HT2cR mRNA; [10]) [%] | activation at 10 µM (5-HT2cR mRNA; [11]) [%] | activation at 10 µM (5-HT2cR mRNA; [12]) [%] | ENZYME ACTIVIY INDEX (% of variation) EC (5-HT2cR mRNA; SH-SY5Y, 10 micromolar, 24 hours) |
| --- | --- | --- | --- | --- | --- | --- | --- | --- | --- | --- | --- | --- | --- | --- | --- | --- | --- |
| CC1(C)O[C@@H]2[C@@H](CO[C@@]3(COS(N)(=O)=O)OC(C)(C)O[C@@H]23)O1 [Topiramate] | -44 | -60 | 14.4 | -19.5 | 11.4 | 8 | -13.5 | -8 | -46 | – | – | – | – | – | – | – | – |
| Cc1c(C(=O)NN2CCCCC2)nn(-c2ccc(Cl)cc2Cl)c1-c1ccc(Cl)cc1 [Rimonabant] | -43 | -7 | 13.3 | 2.4 | -3.7 | 11.3 | 1.2 | -10.4 | -32 | similarly altered | – | – | – | – | – | – | – |
| CC(NC(C)(C)C)C(=O)c1cccc(Cl)c1 (stereo not drawn) [Bupropion] | -66 | -40 | -16.3 | 42.6 | 68.9 | -8.9 | 34.7 | 5.3 | -51 | – | – | – | – | – | – | – | – |
| CCNC(C)Cc1cccc(C(F)(F)F)c1 (stereo not drawn) [Fenfluramine] | 7 | 27 | – | – | – | – | – | – | 23 | – | 4.2 | -43.3 | 0.7 | -4.8 | -34.8 | 4.5 | – |
| Cc1cc2c(s1)Nc1ccccc1N=C2N1CCN(C)CC1 [Olanzapine] | -54 | 92 | – | – | – | – | – | – | 20 | – | -23.2 | 84.9 | 9.2 | -7.6 | 70.5 | 7 | – |
| CC(C)C[C@H](CN)CC(=O)O [Pregabalin] | -33 | -36 | – | – | – | – | – | – | -43 | – | 2.5 | -8.7 | -6.2 | 0.4 | -8.2 | -0.1 | – |
| O=c1n(CCCN2CCN(c3cccc(Cl)c3)CC2)nc2ccccn12 [Trazodone] | -60 | 5 | 0 | 89.3 | 28.4 | 12.9 | 77.7 | 13.4 | -40 | – | – | – | – | – | – | – | – |
| CC[C@@H](C(N)=O)N1CCCC1=O [Levetiracetam] | -9 | -17 | 12 | -36.6 | 10.9 | 2.8 | -27.4 | -3.1 | -11 | – | – | – | – | – | – | – | – |
| NCC1(CC(=O)O)CCCCC1 [Gabapentin] | -42 | -21 | – | – | – | – | – | – | -34 | – | 19.2 | -28.5 | -26.7 | 10.1 | -28.1 | -8.3 | – |
| C[C@H](NC(=O)C(C)(C)Oc1ccc(C(F)(F)F)cn1)[C@@H](Cc1ccc(Cl)cc1)c1cccc(C#N)c1 [Taranabant] | – | – | – | – | – | – | – | – | – | similarly altered | – | – | – | – | – | – | – |
| NC(=O)N1c2ccccc2CC(=O)c2ccccc21 [Oxcarbazepine] | -28 | -15 | 1.1 | -25.6 | -25.9 | -3.9 | -25.6 | 4.8 | -18 | – | – | – | – | – | – | – | −65.2* % |
